Measurements: patent US12391664B2, “GluN2C/D subunit selective antagonists of the N-methyl-D-aspartate receptor” (Emory University, priority 2018, dated 2025)
Like-named read-outs stand apart in the source and are kept apart here.

Assays:
Format in all cases: cell-based
[1] = biological target: T1, recombinant rat GluN1/GluN2B (Rattus norvegicus, UniProt P35439+Q00960); experiment: Two-electrode voltage-clamp recordings in Xenopus laevis oocytes, GluN2B; settings: oocytes, 100 μM glutamate and 30 μM glycine
T1 construct: expressed in transfected cells; host or cells: Xenopus laevis oocytes injected with cRNA (GluN1:GluN2 ratio 1:2)
Description: (§1) All target compounds were evaluated for activity by the Traynelis laboratory at Emory University using two-electrode voltage-clamp recordings performed in Xenopus laevis oocytes expressing recombinant GluN2A-D subunits (Table 1). […] Two ester compounds 997-65 and 997-66 also performed no inhibition at GluN2A to GluN2D receptors. […] Consequently, for the compounds that Acker et al. already published, it was necessary to increase the concentration to 100 μM when collecting data for a concentration effect curve. […] Therefore, under this condition, we can only conclude that compound 997-67 remained potent at GluN2C/D-containing receptors, but its selectivity over GluN2A- and GluN2B-containing receptors could not be compared to 997-57. […] Finally, replacing the carboxylic acid to the bio-isostere amide yielded compounds 997-96 and 997-115, which dropped the potency 2- to 4-fold in comparison to their corresponding acids 997-74 and 997-114.
(§2) Two-electrode voltage-clamp recordings were performed in Xenopus laevis oocytes that were injected with mRNA to express recombinant rat GluN1/GluN2A, GluN1/GluN2B, GluN1/GluN2C, and GluN1/GluN2D. The recordings using unfertilized oocytes from Xenopus laevis were permitted by Emory University Institutional Animal Care and Use Committee (IACUC). An automatic injector (Nanoject II, Drummond Scientific) was used for cRNA injection using the pipettes filled with mineral oil. The cRNA that transcribed in vitro via the mMessage Machine kit (Ambion) was diluted with nuclease-free water, and then injected at GluN1/GluN2 with a ratio of 1:2. The oocytes were stored in Barth's solution that contained 88 mM NaCl, 5.0 mM Tris-HCl, 2.4 mM NaHCO3, 1.0 mM KCl, 0.84 mM MgSO4, 0.41 mM CaCl2, 0.33 mM Ca(NO3)2, 0.1 mg/ml gentamycin sulfate, 1.0 U/ml penicillin, and 1 μg/ml streptomycin at a pH of 7.4 and temperatures of 15-17° C. for two to five days before the two-electrode voltage-clamp recordings. When recording, the oocytes were placed in a perfusion chamber and continually washed with the recording solution comprised of 90 mM NaCl, 1.0 mM KCl, 0.50 mM BaCl2, 0.005 mM EDTA, and 10 mM HEPES at a pH of 7.4 and a temperature of 23° C. Glass electrodes with a tip resistance of 0.5 to 2.5 MΩ were obtained from thin-walled glass capillary tubes. Voltage electrodes and current electrodes were filled with 0.3 M and 3.0 M KCl, respectively. The recordings were executed with the oocytes membrane potential holding at −40 m V by an OC-725 amplifier (Warner Instrument Co). All compounds were dissolved in dimethyl sulfoxide (DMSO) as 20 mM stock solutions and future diluted to reach the desired concentration (0.05-0.5% (vol/vol) DMSO) in recording solution comprised of 30 μM glycine and 100 μM glutamate. Each compound was recorded 3-7 times in the least 4 oocytes from at least 2 different Xenopus laevis.
(§3) To evaluate the inhibition of compounds, the concentration-response curve was fitted with the average two-electrode voltage-clamp recording results with the equation
(§4) [formula] • where IC50 is the concentration of compounds that inhibit half maximal of the current response and N is the Hill slope.

[2] = biological target: T2, recombinant rat GluN1/GluN2A (Rattus norvegicus, UniProt Q00959); experiment: Two-electrode voltage-clamp recordings in Xenopus laevis oocytes, GluN2A; settings: for GluN2A IC50: oocytes, 100 μM glutamate and 30 μM glycine; for I3 μM/Icontrol (mean ± SEM, %) GluN2A: 3 μM compound with 100 μM glutamate and 30 μM glycine, control set as 1
T2 construct: expressed in transfected cells; host or cells: Xenopus laevis oocytes injected with cRNA (GluN1:GluN2 ratio 1:2)
Description: as §1, §2, §3, §4

[3] = biological target: T3, recombinant rat GluN1/GluN2C (Rattus norvegicus, UniProt P35439+Q00961); experiment: Two-electrode voltage-clamp recordings in Xenopus laevis oocytes, GluN2C
T3 construct: expressed in transfected cells; host or cells: Xenopus laevis oocytes injected with cRNA (GluN1:GluN2 ratio 1:2)
Description: as §1, §2, §3, §4

[4] = biological target: T4, recombinant rat GluN1/GluN2D (Rattus norvegicus, UniProt P35439+Q62645); experiment: Two-electrode voltage-clamp recordings in Xenopus laevis oocytes, GluN2D
T4 construct: expressed in transfected cells; host or cells: Xenopus laevis oocytes injected with cRNA (GluN1:GluN2 ratio 1:2)
Description: as §1, §2, §3, §4

[5] = biological target: T5, recombinant rat GluN1/GluN2B (Rattus norvegicus, UniProt Q00960); experiment: Two-electrode voltage-clamp recordings in Xenopus laevis oocytes, GluN2B; settings: for GluN2B IC50: oocytes, 100 μM glutamate and 30 μM glycine; for I3 μM/Icontrol (mean ± SEM, %) GluN2B: 3 μM compound with 100 μM glutamate and 30 μM glycine, control set as 1
T5 construct: expressed in transfected cells; host or cells: Xenopus laevis oocytes injected with cRNA (GluN1:GluN2 ratio 1:2)
Description: as §1, §2, §3, §4

[6] = biological target: T6, recombinant rat GluN1/GluN2C (Rattus norvegicus, UniProt Q00961); experiment: Two-electrode voltage-clamp recordings in Xenopus laevis oocytes, GluN2C; settings: for GluN2C IC50: oocytes, 100 μM glutamate and 30 μM glycine; for I3 μM/Icontrol (mean ± SEM, %) GluN2C: 3 μM compound with 100 μM glutamate and 30 μM glycine, control set as 1
T6 construct: expressed in transfected cells; host or cells: Xenopus laevis oocytes injected with cRNA (GluN1:GluN2 ratio 1:2)
Description: as §1, §2, §3, §4

[7] = biological target: T7, recombinant rat GluN1/GluN2D (Rattus norvegicus, UniProt Q62645); experiment: Two-electrode voltage-clamp recordings in Xenopus laevis oocytes, GluN2D; settings: for GluN2D IC50: oocytes, 100 μM glutamate and 30 μM glycine; for I3 μM/Icontrol (mean ± SEM, %) GluN2D: 3 μM compound with 100 μM glutamate and 30 μM glycine, control set as 1; for fold more potent than the (+)-enantiomer at GluN2D: (−)- versus (+)-enantiomer
T7 construct: expressed in transfected cells; host or cells: Xenopus laevis oocytes injected with cRNA (GluN1:GluN2 ratio 1:2)
Description: as §1, §2, §3, §4

[8] = oocytes, 100 μM glutamate and 30 μM glycine, read-out: GluN2C IC50
[9] = oocytes, 100 μM glutamate and 30 μM glycine, read-out: GluN2D IC50
[10] = mean IC50 with bottom and top 95% confidence interval, read-out: Avg. GluN2C IC50 (95% CI)
[11] = mean IC50 with bottom and top 95% confidence interval, read-out: Avg. GluN2D IC50 (95% CI)
[12] = read-out: IC50 at GluN2D-containing receptors

T1 sequence (Q00960 27-1482, other chains not shown): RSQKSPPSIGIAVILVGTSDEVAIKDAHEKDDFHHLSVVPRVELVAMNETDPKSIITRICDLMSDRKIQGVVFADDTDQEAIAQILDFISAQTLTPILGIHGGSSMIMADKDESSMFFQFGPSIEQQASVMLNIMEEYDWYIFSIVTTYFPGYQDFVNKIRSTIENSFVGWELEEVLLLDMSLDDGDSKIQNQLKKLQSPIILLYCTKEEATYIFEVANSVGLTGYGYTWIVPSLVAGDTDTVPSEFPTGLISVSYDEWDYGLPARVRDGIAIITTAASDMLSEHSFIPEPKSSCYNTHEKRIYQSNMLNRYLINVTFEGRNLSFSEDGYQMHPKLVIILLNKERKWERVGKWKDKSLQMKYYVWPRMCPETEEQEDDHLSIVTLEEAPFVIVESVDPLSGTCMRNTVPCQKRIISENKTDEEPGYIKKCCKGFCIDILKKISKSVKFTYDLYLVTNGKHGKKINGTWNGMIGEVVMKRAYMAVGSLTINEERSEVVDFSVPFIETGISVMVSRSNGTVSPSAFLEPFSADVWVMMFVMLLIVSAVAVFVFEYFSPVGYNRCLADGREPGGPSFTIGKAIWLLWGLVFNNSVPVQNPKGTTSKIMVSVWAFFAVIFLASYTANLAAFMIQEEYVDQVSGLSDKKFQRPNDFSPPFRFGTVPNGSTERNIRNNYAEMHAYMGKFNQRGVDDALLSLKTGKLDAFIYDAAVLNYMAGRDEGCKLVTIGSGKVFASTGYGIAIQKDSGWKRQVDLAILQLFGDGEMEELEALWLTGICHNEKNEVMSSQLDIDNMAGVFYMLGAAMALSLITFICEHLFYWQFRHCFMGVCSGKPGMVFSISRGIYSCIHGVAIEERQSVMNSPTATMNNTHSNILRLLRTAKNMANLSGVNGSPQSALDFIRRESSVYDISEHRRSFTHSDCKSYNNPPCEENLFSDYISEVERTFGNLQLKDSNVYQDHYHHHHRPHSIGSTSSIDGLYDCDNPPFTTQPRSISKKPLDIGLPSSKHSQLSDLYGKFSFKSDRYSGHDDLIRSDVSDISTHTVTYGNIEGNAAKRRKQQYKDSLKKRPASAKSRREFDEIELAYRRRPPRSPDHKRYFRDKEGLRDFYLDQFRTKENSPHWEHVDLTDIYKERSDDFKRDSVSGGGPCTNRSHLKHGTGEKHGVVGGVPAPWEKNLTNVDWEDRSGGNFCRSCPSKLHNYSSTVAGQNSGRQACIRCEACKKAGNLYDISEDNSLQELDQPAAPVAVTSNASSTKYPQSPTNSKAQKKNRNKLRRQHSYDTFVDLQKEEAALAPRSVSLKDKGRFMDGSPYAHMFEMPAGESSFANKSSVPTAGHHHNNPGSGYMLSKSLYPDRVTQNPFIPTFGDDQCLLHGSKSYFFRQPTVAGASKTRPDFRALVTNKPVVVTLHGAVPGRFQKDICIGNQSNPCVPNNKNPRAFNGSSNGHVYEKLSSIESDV
T5 sequence (Q00960 27-1482, other chains not shown): as above
T6 sequence (Q00961 20-1237, other chains not shown): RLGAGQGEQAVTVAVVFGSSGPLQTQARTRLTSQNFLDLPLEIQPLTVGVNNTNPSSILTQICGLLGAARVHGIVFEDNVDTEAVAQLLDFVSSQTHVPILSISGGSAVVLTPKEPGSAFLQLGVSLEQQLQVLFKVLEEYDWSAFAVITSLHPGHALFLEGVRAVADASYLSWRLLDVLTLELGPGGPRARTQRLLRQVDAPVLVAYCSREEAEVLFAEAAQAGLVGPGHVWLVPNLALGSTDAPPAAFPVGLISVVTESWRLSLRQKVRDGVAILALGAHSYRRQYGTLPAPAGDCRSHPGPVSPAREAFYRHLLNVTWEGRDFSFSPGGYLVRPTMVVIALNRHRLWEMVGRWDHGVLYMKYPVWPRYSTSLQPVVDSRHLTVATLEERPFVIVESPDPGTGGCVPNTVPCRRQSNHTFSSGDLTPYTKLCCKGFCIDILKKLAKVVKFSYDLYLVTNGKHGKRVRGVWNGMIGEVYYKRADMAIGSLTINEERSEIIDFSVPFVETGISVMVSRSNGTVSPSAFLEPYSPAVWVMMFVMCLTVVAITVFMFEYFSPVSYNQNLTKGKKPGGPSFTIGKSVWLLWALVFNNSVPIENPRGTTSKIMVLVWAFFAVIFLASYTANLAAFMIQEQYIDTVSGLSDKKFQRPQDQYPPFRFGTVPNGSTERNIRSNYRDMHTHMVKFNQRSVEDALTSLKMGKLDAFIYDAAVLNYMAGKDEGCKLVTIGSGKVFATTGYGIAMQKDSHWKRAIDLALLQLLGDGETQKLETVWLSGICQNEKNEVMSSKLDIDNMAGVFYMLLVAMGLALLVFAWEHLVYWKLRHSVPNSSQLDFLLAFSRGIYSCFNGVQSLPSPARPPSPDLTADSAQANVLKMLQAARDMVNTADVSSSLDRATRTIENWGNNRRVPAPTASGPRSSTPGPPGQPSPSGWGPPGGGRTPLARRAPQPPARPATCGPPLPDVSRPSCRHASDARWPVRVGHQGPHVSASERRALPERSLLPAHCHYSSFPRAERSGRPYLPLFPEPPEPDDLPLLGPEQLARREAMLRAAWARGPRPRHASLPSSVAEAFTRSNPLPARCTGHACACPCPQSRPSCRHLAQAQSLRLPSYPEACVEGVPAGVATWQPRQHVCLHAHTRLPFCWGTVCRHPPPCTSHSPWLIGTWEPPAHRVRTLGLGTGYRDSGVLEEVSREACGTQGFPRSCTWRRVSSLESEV
T3 sequence (Q00961 20-1237, other chains not shown): as above

SMILES	IC50 [1] [µM]	GluN2A IC50 [2]	IC50 [3, 8] [µM]	IC50 [4, 9] [µM]	2B IC50 / 2D IC50 ([7]; ratio of IC50 values)	IC50 [4, 11] [µM]	other results
O=C(O)CC(F)(F)C(=O)N1N=C(c2ccccc2-c2cc(Cl)cc(Cl)c2)CC1c1ccc(Cl)cc1 (stereo not drawn) [997-123, 4-(5-(4-chlorophenyl)-3-(3′,5′-dichloro-[1,1′-biphenyl]-2-yl)-4,5-dihydro-1H-pyrazol-1-yl)-3,3-difluoro-4-oxobutanoic acid]	15.6	NE (NE indicates less than 50% inhibition at 30 μM.)	7.34	4.67			
O=c1[nH]c2ccccc2c(-c2ccc(Cl)cc2)c1C1=NNC(c2ccncc2)C1 (stereo not drawn) [997-78, 4-(4-chlorophenyl)-3-[5-(pyridin-4-yl)-4,5-dihydro-1H-pyrazol-3-yl]quinolin-2(1H)-one]	54	NE (NE indicates less than 50% inhibition at 30 μM.)	20	19	3		GluN2B IC50 [5]: weak potency; GluN2C IC50 [6]: weak potency; GluN2D IC50 [7]: weak potency
O=C(O)CC(F)(F)C(=O)N1N=C(c2c(-c3ccc(Cl)cc3)c3ccccc3[nH]c2=O)C[C@@H]1c1ccc(Cl)cc1 [(+)-997-74]			3.4	3.9		2.24	I3 μM/Icontrol (mean ± SEM, %) GluN2B [5]: 87 ± 1.4%; I3 μM/Icontrol (mean ± SEM, %) GluN2A [2]: 95 ± 0.47%; I3 μM/Icontrol (mean ± SEM, %) GluN2C [6]: 56 ± 3.8%; IC50 [3, 10]: 3.1 µM; I3 μM/Icontrol (mean ± SEM, %) GluN2D [7]: 55 ± 2.7%
O=C(O)CC(F)(F)C(=O)N1N=C(c2ccccc2-c2ccc(Cl)cc2)CC1c1ccc(F)cc1 (stereo not drawn) [997-116, 4-(3-(4′-chloro-[1,1′-biphenyl]-2-yl)-5-(4-fluorophenyl)-4,5-dihydro-1H-pyrazol-1-yl)-3,3-difluoro-4-oxobutanoic acid]	23.1	NE (NE indicates less than 50% inhibition at 30 μM.)	12.1	7.41	3		
O=C(O)CCC(=O)N1N=C(c2c(-c3ccc(Cl)cc3)c3ccccc3[nH]c2=O)CC1c1ccc(Cl)nc1 (stereo not drawn) [997-92, 4-(3-(4-(4-chlorophenyl)-2-oxo-1,2-dihydroquinolin-3-yl)-5-(6-chloropyridin-3-yl)-4,5-dihydro-1H-pyrazol-1-yl)-4-oxobutanoic acid]		NE (NE indicates less than 50% inhibition at 30 μM.)	8	8			GluN2B IC50 [5]: NE (NE indicates less than 50% inhibition at 30 μM.); GluN2C IC50 [6]: weak activity; GluN2D IC50 [7]: weak activity
O=C(CC(F)(F)CO)N1N=C(c2c(-c3ccc(Cl)cc3)c3ccccc3[nH]c2=O)CC1c1ccc(Cl)cc1 (single isomer, unassigned; (+)) [(+)-997-67]			8.5	3.6		7.02	I3 μM/Icontrol (mean ± SEM, %) GluN2B ([5]; listed as (+)-67): 87 ± 2.8%; I3 μM/Icontrol (mean ± SEM, %) GluN2A ([2]; listed as (+)-67): 98 ± 2.1%; I3 μM/Icontrol (mean ± SEM, %) GluN2C ([6]; listed as (+)-67): 74 ± 2.1%; I3 μM/Icontrol (mean ± SEM, %) GluN2D ([7]; listed as (+)-67): 57 ± 3.5%
O=C(CC(F)(F)CO)N1N=C(c2c(-c3ccc(Cl)cc3)c3ccccc3[nH]c2=O)CC1c1ccc(Cl)cc1 (single isomer, unassigned; (-)) [(−)-997-67]			1.4	0.62		0.97	I3 μM/Icontrol (mean ± SEM, %) GluN2B ([5]; listed as (−)-67): 95 ± 2.2%; I3 μM/Icontrol (mean ± SEM, %) GluN2A ([2]; listed as (−)-67): 100 ± 0.89%; I3 μM/Icontrol (mean ± SEM, %) GluN2C ([6]; listed as (−)-67): 42 ± 2.8%; IC50 [3, 10]: 2.71 µM; I3 μM/Icontrol (mean ± SEM, %) GluN2D ([7]; listed as (−)-67): 26 ± 3.2%; fold more potent than the (+)-enantiomer at GluN2D [7]: 6 fold
O=C(O)CC(F)(F)C(=O)N1N=C(c2c(-c3ccc(Cl)cc3)c3ccccc3[nH]c2=O)CC1c1ccc(Cl)s1 (stereo not drawn) [997-110, 4-(3-(4-(4-chlorophenyl)-2-oxo-1,2-dihydroquinolin-3-yl)-5-(5-chlorothiophen-2-yl)-4,5-dihydro-1H-pyrazol-1-yl)-3,3-difluoro-4-oxobutanoic acid]	100		0.43		625		IC50 [4, 12]: 0.16 µM; selectivity at GluN2D- over GluN2B-containing receptor [7]: 625 fold; fold decrease of potency at GluN2D in comparison to 997-74 ([7]; comparator 997-74): 3 fold
Cc1c(C2=NNC(c3ccc(Cl)cc3)C2)c(=O)[nH]c2ccccc12 (stereo not drawn) [997-77, 3-(5-(4-chlorophenyl)-4,5-dihydro-1H-pyrazol-3-yl)-4-methylquinolin-2(1H)-one]		NE (NE indicates less than 50% inhibition at 30 μM.)					GluN2B IC50 [5]: NE (NE indicates less than 50% inhibition at 30 μM.); GluN2C IC50 [6]: NE (NE indicates less than 50% inhibition at 30 μM.); GluN2D IC50 [7]: NE (NE indicates less than 50% inhibition at 30 μM.)
O=C(O)CC(F)(F)C(=O)N1N=C(c2ccccc2-c2ccc(C(F)(F)F)cc2)CC1c1ccc(Cl)cc1 (stereo not drawn) [997-124, 4-(5-(4-chlorophenyl)-3-(4′-(trifluoromethyl)-[1,1′-biphenyl]-2-yl)-4,5-dihydro-1H-pyrazol-1-yl)-3,3-difluoro-4-oxobutanoic acid]	14.8	NE (NE indicates less than 50% inhibition at 30 μM.)	3.63	3.57			
O=C(O)CC(F)(F)C(=O)N1N=C(c2c(-c3ccc(Cl)cc3)c3ccccc3[nH]c2=O)C[C@H]1c1ccc(Cl)cc1 [(−)-997-74]			0.094			0.055	I3 μM/Icontrol (mean ± SEM, %) GluN2B [5]: 73 ± 4.8%; I3 μM/Icontrol (mean ± SEM, %) GluN2A [2]: 67 ± 3.9%; I3 μM/Icontrol (mean ± SEM, %) GluN2C [6]: 9.3 ± 1.8%; IC50 [3, 10]: 0.11 µM; IC50 [4, 12]: 0.046 µM; I3 μM/Icontrol (mean ± SEM, %) GluN2D [7]: 3.5 ± 1.0%; fold more potent than the (+)-enantiomer at GluN2D [7]: 85 fold
NC(=O)CC(F)(F)C(=O)N1N=C(c2c(-c3ccc(Cl)cc3)c3ccccc3[nH]c2=O)CC1c1ccc(Cl)cc1 (stereo not drawn) [997-96, 4-(5-(4-chlorophenyl)-3-(4-(4-chlorophenyl)-2-oxo-1,2-dihydroquinolin-3-yl)-4,5-dihydro-1H-pyrazol-1-yl)-3,3-difluoro-4-oxobutanamide]	2.8		0.5	0.2	14		2A IC50 / 2D IC50 ([7]; ratio of IC50 values): 150
